Several values for one entry are separate records, joined by “and”; a condition that tells them apart may be missing. Equal entries are not always repeated. ± gives the uncertainty stated by the source.
Experiment: xn = mol fraction of the nth substance listed

CC(C)(N)CO + O
viscosity
Details	303.15 K	308.15 K	313.15 K	318.15 K	323.15 K
100 kPa, x1 = 0.01	–	–	0.77 ± 0.05 mPa·s	–	–
100 kPa, x1 = 0.022	–	–	0.93 ± 0.06 mPa·s	–	–
100 kPa, x1 = 0.048	–	–	1.36 ± 0.08 mPa·s	–	–
100 kPa, x1 = 0.12	–	–	3.15 ± 0.19 mPa·s	–	–
101 kPa, x1 = 0.0105	0.88 ± 0.14 mPa·s	0.79 ± 0.13 mPa·s	0.72 ± 0.12 mPa·s	0.65 ± 0.1 mPa·s	0.52 ± 0.08 mPa·s
101 kPa, x1 = 0.0539	1.8 ± 0.29 mPa·s	1.59 ± 0.25 mPa·s	1.39 ± 0.22 mPa·s	1.23 ± 0.2 mPa·s	1 ± 0.16 mPa·s
101 kPa, x1 = 0.0728	2.48 ± 0.4 mPa·s	2.1 ± 0.34 mPa·s	1.8 ± 0.29 mPa·s	1.56 ± 0.25 mPa·s	1.29 ± 0.21 mPa·s
101 kPa, x1 = 0.1	3.54 ± 0.57 mPa·s	2.74 ± 0.44 mPa·s	2.29 ± 0.37 mPa·s	1.96 ± 0.31 mPa·s	1.7 ± 0.27 mPa·s and 1.95 ± 0.08 mPa·s
101 kPa, x1 = 0.1571	6.33 ± 1 mPa·s	4.28 ± 0.69 mPa·s	3.11 ± 0.5 mPa·s	2.86 ± 0.46 mPa·s	2.58 ± 0.41 mPa·s
101 kPa, x1 = 0.2	11.06 ± 0.45 mPa·s	–	6.65 ± 0.27 mPa·s	–	4.14 ± 0.17 mPa·s
101 kPa, x1 = 0.2559	13.3 ± 2.1 mPa·s	7.93 ± 1.3 mPa·s	5.49 ± 0.88 mPa·s	5.09 ± 0.82 mPa·s	4.51 ± 0.72 mPa·s
101 kPa, x1 = 0.3	20.33 ± 0.82 mPa·s	–	11.74 ± 0.48 mPa·s	–	7.18 ± 0.29 mPa·s
101 kPa, x1 = 0.3532	23.78 ± 3.8 mPa·s	16.16 ± 2.6 mPa·s	12.24 ± 2 mPa·s	9.26 ± 1.5 mPa·s	7.5 ± 1.2 mPa·s
101 kPa, x1 = 0.4	32.25 ± 1.3 mPa·s	–	18.35 ± 0.75 mPa·s	–	11.9 ± 0.48 mPa·s
101 kPa, x1 = 0.4546	41.28 ± 6.6 mPa·s	27.92 ± 4.5 mPa·s	20.29 ± 3.3 mPa·s	15.33 ± 2.5 mPa·s	10.88 ± 1.8 mPa·s
101 kPa, x1 = 0.5	53.64 ± 2.2 mPa·s	–	25.49 ± 1.1 mPa·s	–	15.29 ± 0.62 mPa·s
101 kPa, x1 = 0.5537	56.6 ± 9.1 mPa·s	38.93 ± 6.3 mPa·s	28.36 ± 4.6 mPa·s	20.9 ± 3.4 mPa·s	14.59 ± 2.4 mPa·s
101 kPa, x1 = 0.6	60.63 ± 2.5 mPa·s	–	33.17 ± 1.4 mPa·s	–	16.56 ± 0.68 mPa·s
101 kPa, x1 = 0.658	71.44 ± 12 mPa·s	49.28 ± 8 mPa·s	35.14 ± 5.7 mPa·s	25.89 ± 4.2 mPa·s	18.35 ± 3 mPa·s
101 kPa, x1 = 0.7	82.98 ± 3.4 mPa·s	–	43.03 ± 1.8 mPa·s	–	20.8 ± 0.85 mPa·s
101 kPa, x1 = 0.7001	76.44 ± 12 mPa·s	53.22 ± 8.6 mPa·s	37.3 ± 6 mPa·s	27.62 ± 4.5 mPa·s	19.8 ± 3.2 mPa·s
101 kPa, x1 = 0.8	91.29 ± 3.8 mPa·s	–	46.27 ± 1.9 mPa·s	–	22.2 ± 0.91 mPa·s
101 kPa, x1 = 0.8108	85.3 ± 14 mPa·s	57.86 ± 9.4 mPa·s	41.82 ± 6.8 mPa·s	31.42 ± 5.1 mPa·s	22.59 ± 3.7 mPa·s
101 kPa, x1 = 0.9	96.39 ± 4 mPa·s	–	47.42 ± 1.9 mPa·s	–	23.4 ± 0.96 mPa·s
101 kPa, x1 = 0.9082	88.75 ± 14 mPa·s	60 ± 9.7 mPa·s	43 ± 7 mPa·s	32.18 ± 5.2 mPa·s	22.98 ± 3.7 mPa·s
101.33 kPa, x1 = 0.048	1.866 ± 0.045 mPa·s	–	1.405 ± 0.035 mPa·s	–	1.099 ± 0.028 mPa·s
101.33 kPa, x1 = 0.08	3.053 ± 0.072 mPa·s	–	2.168 ± 0.052 mPa·s	–	1.621 ± 0.04 mPa·s

Source: the CheMixHub viscosity set
